Key:
[1] = Enzymatic kinetics in vitro, rat blood; format: in vitro ADME; conditions: 37 °C, 30 min, 5–200 μM Cbz-dFdC
Method: (§1) The SD rats without any treatment were sacrificed after adapting to the environment. Blank blood, the liver, the kidney, and the intestine were collected and treated as described in Section 4.4. Part of the homogenate was removed for centrifugation for 20 min at 9000× g at 4 °C, and the supernatant was obtained as tissue S9. The tissue homogenate and S9 were diluted to […] after the protein concentration was determined by the BCA kit (Abcam, Cambridge, MA, USA). Each matrix consisted of 45 uL of the matrix mixed with 5 uL of the drug dissolved in normal saline solution for about 3 min, followed by incubation at 37 °C in a water bath. Then, acetonitrile containing the internal standard was added to terminate the reaction. Human tissue S9 and human CES1 recombinase purchased from the Ruid Liver Disease Research Co., Ltd. (Shanghai, China) were incubated under the same conditions. An enzyme kinetic study was obtained from the matrix following incubation at 37 °C for 30 min with 5, 10, 20, 50, 100, or 200 μM of Cbz-dFdC. We estimated the parameters and simulated curves according to the Eadie–Hofstee method.

[2] = Enzymatic kinetics in vitro, rat plasma; format: in vitro ADME; conditions: 37 °C, 30 min, 5–200 μM Cbz-dFdC
Method: as §1

[3] = Enzymatic kinetics in vitro, rat liver homogenate; format: in vitro ADME; conditions: 37 °C, 30 min, 5–200 μM Cbz-dFdC
Method: as §1

[4] = Enzymatic kinetics in vitro, rat kidney homogenate; format: in vitro ADME; conditions: 37 °C, 30 min, 5–200 μM Cbz-dFdC
Method: as §1

[5] = Incubation in rat intestine homogenate and S9; format: in vitro ADME
Method: as §1

[6] = Incubation in human plasma and S9 of the kidney and intestine; format: in vitro ADME
Method: as §1

[7] = tested on: HepG2 cells; assay: Cell uptake in HepG2 cells; format: cell-based, human
Method: The cells were cultured on a 96-well plate for 4 h for each well. Then, dimethyl sulfoxide solution containing 0.1–100 mM of Cbz-dFdC and dFdC was diluted 1000 times with the medium before administration. A total of 200 uL of medium containing Cbz-dFdC and dFdC was added per well (n = 6). The medium with drugs was discarded, and 10% CCK-8 solution was added. Then, the absorbance value was read at a wavelength of 450 nm after incubation at 37 °C, for 30 min. The drug concentration of Cbz-dFdC and dFdC in cell were determined by a previously established method.

[8] = tested on: HepG2 tumor; assay: Antitumor efficacy in vivo, HepG2 tumor-bearing mice; conditions: 15 days, Cbz-dFdC i.g. 22 mg/kg/day vs dFdC i.p. 15 mg/kg/day (equimolar)
Method: A cell suspension (2 × 10^7 cells/mL) of HepG2 with 0.2 mL was subcutaneously injected into the right armpits of the mice. After the hepatocellular carcinomas were inoculated, mice bearing an overt tumor with a size of 100–200 mm^3 were randomized into the control and treatment groups. One group was injected (i.p.) with PBS as the control group, Cbz-dFdC groups were given with 22 mg/kg/day (i.g.), respectively, and the dFdC groups were given with 15 mg/kg/day (i.p.), respectively. The tumor sizes of all mice were monitored at 0 d, 3 d, 6 d, 9 d, 12 d, and 15 d after drug treatment. The tumor size was converted into tumor volume (V), which was calculated by the formula (L × W^2 × 0.52) and presented as the mean ± standard deviation, where L and W are the length and width of the tumor, respectively. The tumors were measured with a Vernier caliper until day 15, when the PBS brine-treated mice began to die, then all […] were sacrificed via nitrogen inhalation.

[9] = read-out: Km, appearance of dFdC
[10] = read-out: Km, disappearance of Cbz-dFdC
[11] = SD, read-out: Clint, disappearance of Cbz-dFdC

- Km [1, 9]: 73.2 µM
- Km [1, 10]: 69.8 µM
- microsomal CLint [1, 11]: 4890 µL/min/mg
- Km [2, 9]: 101 µM
- Km [2, 10]: 90.3 µM
- microsomal CLint [2, 11]: 5380 µL/min/mg
- Km [3, 9]: 96.4 µM
- Km [3, 10]: 190 µM
- microsomal CLint [3, 11]: 2170 µL/min/mg
- Km [4, 9]: 48.9 µM
- Km [4, 10]: 148 µM
- microsomal CLint [4, 11]: 1100 µL/min/mg
- stability towards CES2 in rats ([5]; concluded from tissue-specific CES expression, rats): relatively stable in CES2
- degradation in rat intestine homogenate and S9 ([5]; rat intestine homogenate and S9, dFdC not generated): essentially non-degradable
- stability towards CES2 in humans ([6]; concluded from tissue-specific CES expression, humans): relatively stable in CES2
- degradation in human plasma and S9 of the kidney and intestine ([6]; human plasma, kidney S9, intestine S9): did not degrade
- intracellular concentration (cell uptake) [7]: low
Compound: O=C(Nc1ccn([C@@H]2O[C@H](CO)[C@@H](O)C2(F)F)c(=O)n1)OCc1ccccc1 [Cbz-dFdC, 4-N-carbobenzoxy-gemcitabine]
- Vmax, appearance of dFdC [1]: 178.5 nmol/min/mg pro
- Vmax, disappearance of Cbz-dFdC [1]: 341.1 nmol/min/mg pro
- Vmax, appearance of dFdC [2]: 230.4 nmol/min/mg pro
- Vmax, disappearance of Cbz-dFdC [2]: 486.2 nmol/min/mg pro
- Vmax, appearance of dFdC [3]: 86.8 nmol/min/mg pro
- Vmax, disappearance of Cbz-dFdC [3]: 411.6 nmol/min/mg pro
- Vmax, appearance of dFdC [4]: 44.3 nmol/min/mg pro
- Vmax, disappearance of Cbz-dFdC [4]: 162.7 nmol/min/mg pro
- antitumor effect (tumor size) [8]: slightly better than that of dFdC

From article PMC7248705, “A Pharmacokinetic and Pharmacodynamic Evaluation of the Anti-Hepatocellular Carcinoma Compound 4-N-Carbobenzoxy-gemcitabine (Cbz-dFdC)” (Molecules, 2020)
